According to article PMC4186475 (Influenza and Other Respiratory Viruses, 2013):

Tests used:
[1] = system: neuraminidase (NA) of influenza B viruses; assay type: biochemical, influenza B virus
[2] = system: neuraminidase (NA) of influenza A (H1N1)pdm09 viruses; assay type: biochemical, influenza A (H1N1)pdm09 virus
[3] = system: neuraminidase (NA) of variant influenza A (H3N2)v viruses; assay type: biochemical, influenza A (H3N2)v virus

## CCOC(=O)C1=C[C@@H](OC(CC)CC)[C@H](NC(C)=O)[C@@H](N)C1 [Oseltamivir, Oseltamivir (carboxylate)]
[1]
  Fold change in IC50 of test viruses, Approach #2: 5–8 (2) fold
[2]
  Fold change in IC50 of test viruses, Approach #1: 319–1474 (8) fold
  Fold change in IC50 of test viruses, Approach #2: 182–1403 (8) fold
  Fold change in IC50 of test viruses, Approach #3: 213–1637 (8) fold
  fold change in IC50 of outliers: 38-27-294·72 (213–1637) fold
[3]
  fold change in IC50 of outliers: 5·30 (35) fold

## CC(=O)N[C@H]1[C@H]([C@H](O)[C@H](O)CO)OC(C(=O)O)=C[C@@H]1N=C(N)N [Zanamivir, zanamivir]
[1]
  Fold change in IC50 of test viruses, Approach #2: 7 (1) fold
[3]
  fold change in IC50 of outliers: 35·74 (70) fold
